# Experimental data reported in patent US7625713B2, “Process for identifying a ligand that binds to the NEP binding site for the SMR1 pentapeptide” (Institut Pasteur, priority 2000, dated 2009).
# Where a SMILES comes first, the peptide text is derived from it.
# Tests used:
# NEP [1] = target: T1, NEP (Rattus norvegicus, UniProt P07861); test: 3H-Substance P hydrolysis by rat spinal cord slices; assay type: biochemical; conditions: 10 μM combined with GEMSA (10 μM) and DPPIV inhibitor (10 μM), 25° C., read-out: inhibition of Substance P degradation
# T1 construct: incubations of membrane and fresh tissue slice preparations from nervous tissues; from tissue; host or cells: dorsal spinal cord of male Wistar rats (fresh slices or 100 000 x g membrane fraction)
# T1 sequence (P07861 1-750): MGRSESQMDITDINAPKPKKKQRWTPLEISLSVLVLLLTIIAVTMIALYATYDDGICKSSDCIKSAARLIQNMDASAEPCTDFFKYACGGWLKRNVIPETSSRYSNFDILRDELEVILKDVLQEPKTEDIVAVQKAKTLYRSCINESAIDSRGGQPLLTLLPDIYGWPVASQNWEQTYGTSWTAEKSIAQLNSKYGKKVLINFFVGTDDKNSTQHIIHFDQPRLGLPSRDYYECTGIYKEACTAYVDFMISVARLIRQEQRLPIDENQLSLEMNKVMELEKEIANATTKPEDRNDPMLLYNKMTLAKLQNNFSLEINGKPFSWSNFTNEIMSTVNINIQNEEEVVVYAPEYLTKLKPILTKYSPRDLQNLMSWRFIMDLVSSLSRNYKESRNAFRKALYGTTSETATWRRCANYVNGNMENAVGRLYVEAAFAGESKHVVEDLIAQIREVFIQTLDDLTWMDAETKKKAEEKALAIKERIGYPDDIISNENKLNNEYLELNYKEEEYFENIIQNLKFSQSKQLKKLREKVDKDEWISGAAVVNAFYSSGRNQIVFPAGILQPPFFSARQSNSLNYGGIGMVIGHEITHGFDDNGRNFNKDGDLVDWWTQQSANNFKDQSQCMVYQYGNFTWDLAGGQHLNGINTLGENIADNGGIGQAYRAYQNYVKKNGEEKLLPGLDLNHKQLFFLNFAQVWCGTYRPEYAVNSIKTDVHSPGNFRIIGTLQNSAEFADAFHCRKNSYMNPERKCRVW
# Experimental: For the experiments of analysis of the NEP peptidase activity, an ex vivo model using incubations of membrane and fresh tissue slice preparations from nervous tissues that are known to be appropriate for exploring NEP peptidase activity: i.e. the dorsal zone of rat spinal cord, was first developed. […] (NEN, 12.5-25 nM) were used.
# The objective was to measure the NEP-specific endoproteolysis of these substrates.
# NEP [2] = target: T2, NEP (Rattus norvegicus, UniProt P07861); test: Substance P endoproteolysis by rat peripheral tissue membrane preparations; assay type: biochemical
# T2 construct: peripheral tissue membrane preparations that are known to be enriched in NEP-peptidase; from tissue; host or cells: rat renal outer medulla/kidney, intestine mucosa, placenta, prostate, dental and bone tissues, submandibular gland (membrane preparations)
# T2 sequence (P07861 2-750): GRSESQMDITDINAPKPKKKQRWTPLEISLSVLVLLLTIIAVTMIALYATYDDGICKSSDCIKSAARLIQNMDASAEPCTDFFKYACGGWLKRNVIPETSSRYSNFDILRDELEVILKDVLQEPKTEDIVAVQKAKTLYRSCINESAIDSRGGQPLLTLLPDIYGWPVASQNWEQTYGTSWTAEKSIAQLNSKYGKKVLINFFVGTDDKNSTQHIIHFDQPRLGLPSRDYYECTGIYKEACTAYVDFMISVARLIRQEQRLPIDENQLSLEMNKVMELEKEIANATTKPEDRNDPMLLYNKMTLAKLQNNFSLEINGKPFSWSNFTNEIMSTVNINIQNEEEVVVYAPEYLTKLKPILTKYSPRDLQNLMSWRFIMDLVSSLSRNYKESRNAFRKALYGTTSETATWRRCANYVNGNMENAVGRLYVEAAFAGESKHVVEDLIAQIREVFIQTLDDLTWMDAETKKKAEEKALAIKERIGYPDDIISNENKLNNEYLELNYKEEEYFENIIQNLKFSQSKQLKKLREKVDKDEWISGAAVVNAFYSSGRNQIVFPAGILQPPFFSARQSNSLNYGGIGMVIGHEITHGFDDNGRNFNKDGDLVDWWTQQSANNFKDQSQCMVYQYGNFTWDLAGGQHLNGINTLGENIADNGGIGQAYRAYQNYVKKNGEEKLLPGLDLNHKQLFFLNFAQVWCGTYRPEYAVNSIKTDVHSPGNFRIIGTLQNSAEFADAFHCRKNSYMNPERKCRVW
# Experimental: FIG. 4-A: Endopeptidase activity of the tissue membrane preparations was determined using 25 nM [3H] substanceP, in the presence of 10 μM bestatin. The enzymatic specific activity expressed in pM/min/μg membrane protein is done in the absence and in the presence of 10 μM sialorphin or NEP inhibitors (10 μM phosphoramidon or 1 μM thiorphan).
# FIG. 4-B: Concentration-dependent inhibition by sialorphin of [3H] substanceP catabolism by rat renal membrane preparations. Each point represents the percentage of […] intact [3H] substanceP recovered and calculated as percentage of velocity without inhibitor−velocity in presence of inhibitor/velocity without inhibitor, and (*) represents the mean±SD of four determinations. Sialorphin concentration is expressed in nM and plotted on a log scale in B right. The protein concentration of membrane enzyme were defined according to conditions of measurement of initial velocity.
# The same approach was applied to peripheral tissue membrane preparations that are known to be enriched in NEP-peptidase and/or to be targets for sialorphin, in vivo, i.e., renal outer medulla, intestine mucosa, placenta, prostate, dental and bone tissues, as well as submandibular epithelium (Rougeot, C. et al, American Journal of Physiology, (1997) 273, R1309-20; Sales et al., (1991) Regulatory Peptides 33, 209-22) and reviewed by Kenny et al., (1987), Mammalian ectoenzymes 169-210. There is evidence that, almost all these tissues contain substance P released from peripheral parasympathetic and sensory nerve terminals acting near the site of release on target cells that contain the neurokinin receptors to modulate the particular tissue function (McCarson et al., (1999), Neuroscience 93, 361-70). Thus, it appeared that the neuropeptide could be regarded as a relevant biologically NEP substrate at the periphery. However, substance P is cleaved potently by NEP and ACE membrane-bound peptidases, and both enzymes are highly distributed in the renal epithelium (Skidgel et al., (1985), Progress in Clinical & Biological Research 192, 371-8).
# The specificity of the peptidase assay was assessed by testing the inhibitory efficacy of selective peptidase inhibitors (at 1-10 μM final concentration to induce maximum inhibitory response) on the endoproteolysis of 3H substance P by the various tissue-membrane enzymes, and by analysing the selective formation of the NEP-related tritiated product of the reaction that was defined, as above using spinal tissue. In addition, under standard conditions of initial velocity measurement, bestatin (10 μM) was added in the incubation medium to prevent unselectively the membrane aminopeptidase activities.
smiles,measurement,setting,value
"N=C(N)NCCC[C@H](NC(=O)[C@@H]1CCCN1C(=O)[C@H](CC(N)=O)NC(=O)[C@H](Cc1c[nH]cn1)NC(=O)[C@@H](N)CCC(N)=O)C(=O)O [sialorphin, Gln-His-Asn-Pro-Arg] (H-QHNPR-OH; N-terminus and C-terminus assumed)",inhibition at 10 µM,NEP [1],> 90%
same,inhibitory efficacy on ectopeptidase-sensitive substance P degradation,"NEP [2]; inner bone tissues, n=4",75±10%
same,inhibition at 10 µM,"NEP [2]; male rat kidney membranes, 25 nM [3H] substance P, 10 μM bestatin, 10 μM sialorphin, n=9, read-out: inhibition of renal membrane substance-P-hydrolytic activity (maximum inhibitory response)",60 ± 5%
same,protection of exogenous 3H substance P from catabolic process,NEP [2]; membrane fractions of the rat intestine,87±17%
same,inhibition of substance-P-hydrolytic activity,NEP [2]; rat SMG (submandibular gland) membranes,79%
same,reduction of 3H-substance P catabolic process,"NEP [2]; rat inner dental tissue membranes, inhibitors at 1-10 μM (sialorphin 10 μM)",39±14%
same,decrease of substance P degradation,"NEP [2]; rat placenta and prostate tissue membranes, 10 μM",70±3%
same,IC50,"NEP [2]; rat renal membrane preparations, read-out: IC50 on 3H substance-P degradation by rat kidney",500 to 1000 nM
